Results taken from ChEMBL document CHEMBL1156374, “Pestalone, a new antibiotic produced by a marine fungus in response to bacterial challenge” (2001).
In brackets after ≈: the same amount, converted by molar mass.

Key:
Format in all cases: functional
Staphylococcus aureus = assay: Antibacterial activity against methicillin-resistant Staphylococcus aureus
Enterococcus faecium = assay: Antibacterial activity against vancomycin-resistant Enterococcus faecium
[1] = Cytotoxicity against human NCI60 cells

For `COc1c(Cl)c(C)c(Cl)c(O)c1C(=O)c1c(C=O)c(O)cc(O)c1CC=C(C)C` [PESTALONE], which MIC (Staphylococcus aureus) is on record?
The MIC was 0.037 µg/mL (≈ 0.0842 µM).

And the MIC (Enterococcus faecium)?
The MIC was 0.078 µg/mL (≈ 0.178 µM).

And the GI50 [1]?
Its GI50 is 6 µM.
